From patent publication US20090170880A1, “Methods and Means for the Treatment of Cancer” (priority 2007, published 2009)

Target: T1, human BCRP (Homo sapiens, UniProt Q9UNQ0)
T1 construct: expressed in transfected cells; host or cells: MDCK (canine kidney) cells transduced with human BCRP
T1 sequence (Q9UNQ0 1-655): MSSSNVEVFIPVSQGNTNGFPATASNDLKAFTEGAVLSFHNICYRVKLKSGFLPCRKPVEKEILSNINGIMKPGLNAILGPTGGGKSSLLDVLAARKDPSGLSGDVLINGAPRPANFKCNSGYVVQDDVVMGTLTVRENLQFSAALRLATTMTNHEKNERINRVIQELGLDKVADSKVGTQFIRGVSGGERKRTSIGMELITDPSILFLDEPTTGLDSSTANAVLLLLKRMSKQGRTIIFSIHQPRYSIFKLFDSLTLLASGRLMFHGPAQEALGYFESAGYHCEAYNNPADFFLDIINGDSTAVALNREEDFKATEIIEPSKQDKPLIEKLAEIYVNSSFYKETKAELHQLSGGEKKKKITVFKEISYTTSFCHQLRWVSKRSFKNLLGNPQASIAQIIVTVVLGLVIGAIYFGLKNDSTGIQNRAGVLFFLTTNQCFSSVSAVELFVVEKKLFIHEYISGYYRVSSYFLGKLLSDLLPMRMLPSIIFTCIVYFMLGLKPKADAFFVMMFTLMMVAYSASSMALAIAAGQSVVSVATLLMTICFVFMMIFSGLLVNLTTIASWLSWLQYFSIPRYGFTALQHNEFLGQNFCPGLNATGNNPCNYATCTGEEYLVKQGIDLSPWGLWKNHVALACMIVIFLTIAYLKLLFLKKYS
Assay: Transwell transport of temozolomide, MDCK-BCRP cells
Assay type: in vitro ADME
Conditions: 40 μg/ml, MDCK-BCRP versus MDCK parent, zosuquidar 5 μM
Description: The parental LLC pig-kidney (PK1) cell line and sublines transduced with murine Mdr1a or human MDR1 (12) and the parental Madine Darby Canine Kidney (MDCK) and murine Bcrp1 or human BCRP transduced sublines (13) were seeded on Transwell microporous polycarbonate membrane filters (3.0 μm pore size, 24 mm diameter; Costar Corning, N.Y., USA) at a density of 1×10^6 cells per well in 2 ml of MEM medium (Invitrogen Corporation, Carlsbad, Calif.) containing 10% v/v fetal calf serum. Cells were incubated at 37° C. in 5% CO2 for three days with one medium replacement after the first day. Two hours before the start of the experiment the medium in both compartments was replaced with 2 ml of OptiMEM medium (InVitrogen Corp.). At the start of the experiment the medium in the apical or basolateral compartment was replaced with 2 ml of freshly prepared OptiMEM medium containing 40 μg/ml of temozolomide. […] Zosuquidar (LY335979, 5 μM) was always added to the medium when doing experiments with MDCK cell lines to inhibit endogenous canine P-gp. Samples of 50 μl were collected every 30 min, for up to 2 h after start of the experiment. Because temozolomide is instable in medium at 37° C., we replaced one ml of the donor compartment by a freshly prepared aliquot every 30 min. […]

## Cn1nnc2c(C(N)=O)ncn2c1=O [temozolomide, 8-carbamoyl-3-methyl-[3H]-imidazo[5,1-d]-1,2,3,5-tetrazin-4-one]
  transport of temozolomide by human BCRP: more moderate transport
Listed as Temozolomide
  transport of temozolomide by human BCRP: less
